# According to US10597388B2, “Pyridazinone herbicides” (FMC CORPORATION, priority 2014, dated 2020):
# Tests used:
# Assay type in all cases: in vivo
# corn (Zea mays) = experiment: Test A greenhouse herbicide test, pre- and postemergence; settings: Postemergence; for Corn plant response rating: 0 to 100 scale, 0 is no effect, 100 is complete control
# Outline: (§1)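 Seeds in loam–sand blend received a preemergence directed soil spray; plants at 2–10 cm, one- to two-leaf stage, received postemergence sprays. Compounds in a non-phytotoxic solvent with surfactant. After about 10 d in a greenhouse, injury rated visually versus untreated controls on a 0–100 scale (100 = complete control).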
# [1] = tested on: ragweed (common ragweed, Ambrosia elatior); experiment: as above
# Outline: as §1
# [2] = tested on: barnyardgrass (Echinochloa crus-galli); experiment: as above
# Outline: as §1
# kochia (Kochia scoparia) [3] = experiment: as above
# Outline: as §1
# [4] = tested on: pigweed (Amaranthus retroflexus); experiment: as above
# Outline: as §1
# [5] = tested on: wheat (Triticum aestivum); experiment: as above; settings: Postemergence; for Wheat plant response rating: 0 to 100 scale, 0 is no effect, 100 is complete control
# Outline: as §1
# kochia (Kochia scoparia) [6] = experiment: Test C greenhouse herbicide test, postemergence
# Outline: (§2)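 Greenhouse postemergence spray on plants 2–18 cm tall; response judged visually after 13–15 d relative to untreated controls using a 0 (none) to 100 (full control) scale.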
# [7] = tested on: oat, wild (wild oat, Avena fatua); experiment: Test C greenhouse herbicide test, postemergence
# Outline: as §2
# [8] = tested on: galium (catchweed bedstraw, Galium aparine); experiment: Test A greenhouse herbicide test, postemergence; settings: for Galium plant response rating: 0 to 100 scale, 0 is no effect, 100 is complete control
# Outline: (§3)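 Pot-grown plants (loam soil/sand blend), 2–10 cm tall at the one- to two-leaf stage, received postemergence sprays of formulated test chemical. After about 10 d in the greenhouse, injury was rated visually against untreated controls on a 0 (no effect) to 100 (complete control) scale.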
# [9] = tested on: blackgrass (Alopecurus myosuroides); experiment: Test A greenhouse herbicide test, postemergence; settings: for Blackgrass plant response rating: 0 to 100 scale, 0 is no effect, 100 is complete control
# Outline: as §3
# [10] = tested on: crabgrass, large (large crabgrass, Digitaria sanguinalis); experiment: Test C greenhouse herbicide test, pre- and postemergence
# Outline: (§4)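 Seeds sown in loam–sand blend treated preemergence; plants in peat-based medium sprayed postemergence at 2–18 cm (1- to 4-leaf stage); chemicals in non-phytotoxic solvent with surfactant. Greenhouse 13–15 d, then visual rating versus controls on 0–100 scale (0 no effect, 100 complete control).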
# [11] = tested on: oilseed rape (Brassica napus); experiment: as above
# Outline: as §4
# [12] = 125 g ai/ha, 0 to 100 scale where 0 is no effect and 100 is complete control
# [13] = Postemergence, 125 g ai/ha, 0 to 100 scale where 0 is no effect and 100 is complete control
# [14] = Postemergence, 500 g ai/ha, 0 to 100 scale, 0 is no effect, 100 is complete control
# [15] = Preemergence, 125 g ai/ha, 0 to 100 scale where 0 is no effect and 100 is complete control
# [16] = Preemergence, 500 g ai/ha, 0 to 100 scale, 0 no effect, 100 complete control
# [17] = Postemergence, 31 g ai/ha, 0 to 100 scale (0 no effect, 100 complete control)
# [18] = Postemergence, 125 g ai/ha, scale 0 to 100, 0 is no effect, 100 is complete control
# [19] = Postemergence, 250 g ai/ha, scale 0 to 100, 0 no effect, 100 complete control, 13 to 15 d
# [20] = postemergence, 62 g ai/ha, scale 0 to 100, 0 no effect, 100 complete control
# [21] = Preemergence, 31 g ai/ha, scale 0 to 100, 0 is no effect, 100 is complete control
# [22] = Preemergence, 62 g ai/ha, scale 0 to 100, 0 is no effect, 100 is complete control
# [23] = Preemergence, 125 g ai/ha, scale 0 to 100, 0 is no effect, 100 is complete control
# [24] = Preemergence, 250 g ai/ha, scale 0 to 100 (0 no effect, 100 complete control)
# [25] = Postemergence, 1000 g ai/ha, 0 to 100 scale, 0 is no effect, 100 is complete control
# [26] = Preemergence, 1000 g ai/ha, 0 to 100 scale, 0 no effect, 100 complete control
smiles,measurement,setting,value
Cc1ccc2ccccc2c1-c1c(O)c(C)nn(C)c1=O [Compound 59],"Plant response rating, Corn",corn (Zea mays); [12],20
same,Corn plant response rating,corn (Zea mays); 500 g ai/ha,60
same,"Plant response rating, Ragweed",[1]; [13],90
same,Ragweed plant response rating,[1]; [14],100
same,Ragweed plant response rating,[1]; [15],90
same,"Plant response rating, Ragweed",[1]; [16],100
same,"Plant response rating, Barnyardgrass",[2]; [13],80
same,Barnyardgrass plant response rating,[2]; [14],90
same,Barnyardgrass plant response rating,[2]; [15],80
same,"Plant response rating, Barnyardgrass",[2]; [16],100
same,"Plant response rating, Kochia",kochia (Kochia scoparia) [3]; [13],100
same,Kochia plant response rating,kochia (Kochia scoparia) [3]; [14],100
same,Kochia plant response rating,kochia (Kochia scoparia) [3]; [15],90
same,"Plant response rating, Kochia",kochia (Kochia scoparia) [3]; [16],90
same,"Plant response rating, Pigweed",[4]; [13],100
same,Pigweed plant response rating,[4]; [14],100
same,Pigweed plant response rating,[4]; [15],100
same,"Plant response rating, Pigweed",[4]; [16],100
same,"Plant response rating, Wheat",[5]; [12],50
same,Wheat plant response rating,[5]; 500 g ai/ha,100
same,Kochia plant response rating,kochia (Kochia scoparia) [6]; [17],95
same,"Plant response rating, Kochia",kochia (Kochia scoparia) [6]; [18],85
same,"Plant response rating, Kochia",kochia (Kochia scoparia) [6]; [19],90
same,Kochia plant response rating,kochia (Kochia scoparia) [6]; [20],85
same,"Oat, Wild plant response rating",[7]; [17],80
same,"Plant response rating, Oat, Wild",[7]; [18],90
same,"Plant response rating, Oat, Wild",[7]; [19],98
same,"Oat, Wild plant response rating",[7]; [20],75
same,"Plant response rating, Galium",[8]; [12],100
same,Galium plant response rating,[8]; 500 g ai/ha,100
same,"Plant response rating, Blackgrass",[9]; [12],90
same,Blackgrass plant response rating,[9]; 500 g ai/ha,100
same,"Crabgrass, Large plant response rating",[10]; [17],15
same,"Plant response rating, Crabgrass, Large",[10]; [18],25
same,"Plant response rating, Crabgrass, Large",[10]; [19],60
same,"Plant response rating, Crabgrass, Large",[10]; [21],25
same,"Plant response rating, Crabgrass, Large",[10]; [22],70
same,"Plant response rating, Crabgrass, Large",[10]; [23],85
same,"Crabgrass, Large plant response rating",[10]; [24],100
same,"Crabgrass, Large plant response rating",[10]; [20],20
same,Oilseed Rape plant response rating,[11]; [17],5
same,"Plant response rating, Oilseed Rape",[11]; [18],40
same,"Plant response rating, Oilseed Rape",[11]; [19],55
same,"Plant response rating, Oilseed Rape",[11]; [21],65
same,"Plant response rating, Oilseed Rape",[11]; [22],80
same,"Plant response rating, Oilseed Rape",[11]; [23],95
same,Oilseed Rape plant response rating,[11]; [24],95
same,Oilseed Rape plant response rating,[11]; [20],50
Cc1ccc2ccc(C)c(-c3c(O)c(C)nn(C)c3=O)c2c1 [Compound 60],Corn plant response rating,corn (Zea mays); 1000 g ai/ha,50
same,Ragweed plant response rating,[1]; [25],100
same,"Plant response rating, Ragweed",[1]; [26],100
same,Barnyardgrass plant response rating,[2]; [25],90
same,"Plant response rating, Barnyardgrass",[2]; [26],80
same,Kochia plant response rating,kochia (Kochia scoparia) [3]; [25],100
same,"Plant response rating, Kochia",kochia (Kochia scoparia) [3]; [26],80
same,Pigweed plant response rating,[4]; [25],100
same,"Plant response rating, Pigweed",[4]; [26],100
same,Wheat plant response rating,[5]; 1000 g ai/ha,70
same,Kochia plant response rating,kochia (Kochia scoparia) [6]; [17],90
same,"Plant response rating, Kochia",kochia (Kochia scoparia) [6]; [18],100
same,"Plant response rating, Kochia",kochia (Kochia scoparia) [6]; [19],100
same,Kochia plant response rating,kochia (Kochia scoparia) [6]; [20],90
same,"Oat, Wild plant response rating",[7]; [17],85
same,"Plant response rating, Oat, Wild",[7]; [18],95
same,"Plant response rating, Oat, Wild",[7]; [19],95
same,"Oat, Wild plant response rating",[7]; [20],95
same,Galium plant response rating,[8]; 1000 g ai/ha,100
same,Blackgrass plant response rating,[9]; 1000 g ai/ha,90
same,"Crabgrass, Large plant response rating",[10]; [17],15
same,"Plant response rating, Crabgrass, Large",[10]; [18],50
same,"Plant response rating, Crabgrass, Large",[10]; [19],65
same,"Plant response rating, Crabgrass, Large",[10]; [21],20
same,"Plant response rating, Crabgrass, Large",[10]; [22],75
same,"Plant response rating, Crabgrass, Large",[10]; [23],85
same,"Crabgrass, Large plant response rating",[10]; [24],95
same,"Crabgrass, Large plant response rating",[10]; [20],35
same,Oilseed Rape plant response rating,[11]; [17],5
same,"Plant response rating, Oilseed Rape",[11]; [18],85
same,"Plant response rating, Oilseed Rape",[11]; [19],80
same,"Plant response rating, Oilseed Rape",[11]; [21],30
same,"Plant response rating, Oilseed Rape",[11]; [22],85
same,"Plant response rating, Oilseed Rape",[11]; [23],90
same,Oilseed Rape plant response rating,[11]; [24],90
same,Oilseed Rape plant response rating,[11]; [20],5
